Reference: patent US11180510B2, “Xanthine derivatives and uses thereof as inhibitors of bromodomains of BET proteins” (Centre national de la recherche scientifique, priority 2017, dated 2021)
Like-named read-outs stand apart in the source and are kept apart here.

Key:
Brd3(BD1) = Brd3(BD1) (Homo sapiens, UniProt Q15059); test: HTRF BET selectivity profile, Brd3(BD1); assay type: binding; design: GST tagged bromodomain proteins were purchased from BPS Bioscience; purchased BPS Bioscience; settings: for Ratio 3-1 vs 3-2: selectivity Brd3(BD1) vs Brd3(BD2), HTRF IC50
Chain of Brd3(BD1) (Q15059 34-140 limits assumed): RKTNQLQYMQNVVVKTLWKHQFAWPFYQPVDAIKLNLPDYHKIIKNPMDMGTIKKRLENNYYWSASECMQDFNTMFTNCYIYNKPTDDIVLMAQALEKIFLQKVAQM
Method: (§1) HTRF assays were performed in white 384 Well Small Volume™ HiBase Polystyrene Microplates (Greiner) with a total working volume of 20 μL. Compounds were dispensed, with 100 nL per well (0.5% final DMSO), from a concentration stock of 10 mM in 100% DMSO and with serial DMSO dilutions, using an Echo® 550 robot from the Access Labcyte platform (Labcyte) and based on the transfer of liquid by acoustic wave. Then, 19.5 μL of buffer is added, using a Multidrop Combi (Thermo Fisher Scientific). […] All HTRF reagents (donor and acceptor) were purchased from CisBio Bioassays and reconstituted according to the supplier protocols. The peptide was purchased from Genic Bio Synthetic. The BRD4(1) protein was produced and purified in the laboratory.
(§2) Percentage of inhibition was calculated using the following equation: % inhibition=[(compound signal)−(min signal)]/[(max signal)−(min signal)]*100, where ‘max signal’ is the signal ratio with the compound vehicle alone (DMSO) and ‘min signal’ the signal ratio without peptide.
(§3) Selectivity profiles of bromodomain inhibitors were performed as described in HTRF screen section. […] HTRF detection reagents (EPIgeneous™ Binding Domain kits) were purchased from Cisbio Bioassays and used according to supplier's protocol. GST tagged bromodomain proteins were purchased from BPS Bioscience and histone peptide from Genic Bio Synthetic.

Brdt(BD1) = biological target: T1, Brdt(BD1) (Homo sapiens, UniProt Q58F21); test: HTRF BET selectivity profile, Brdt(BD1); assay type: binding
T1 construct: GST tagged bromodomain proteins were purchased from BPS Bioscience; purchased BPS Bioscience
Method: (§4) HTRF assays were performed in white 384 Well Small Volume™ HiBase Polystyrene Microplates (Greiner) with a total working volume of 20 μL. Compounds were dispensed, with 100 nL per well (0.5% final DMSO), from a concentration stock of 10 mM in 100% DMSO and with serial DMSO dilutions, using an Echo® 550 robot from the Access Labcyte platform (Labcyte) and based on the transfer of liquid by acoustic wave. Then, 19.5 μL of buffer is added, using a Multidrop Combi (Thermo Fisher Scientific). Finally, for each assay, 200 nL of master mix (protein+donor+acceptor) and 200 nL of peptide Is added in the assay wells according to the final concentration and buffer described in Table 3, using the Echo® 550 robot (Labcyte). The IC50 measurements were performed in triplicates (Table 2 and 3). All HTRF reagents (donor and acceptor) were purchased from CisBio Bioassays and reconstituted according to the supplier protocols. The peptide was purchased from Genic Bio Synthetic. The BRD4(1) protein was produced and purified in the laboratory. HTRF signals were measured, after a final incubation (3 h or 6 h or overnight at room temperature or 4° C., according to the bromodomain), using a PHERAstar FS (BMG Labtech) with an excitation filter at 337 nm and fluorescence wavelength measurement at 620 and 665 nm, an integration delay of 60 μs and an integration time of 500 μs. Results were analyzed with a two-wavelengths signal ratio: [intensity (665 nm)/intensity (620 nm)]*104.
as §2, §3

BRD4(BD1) [1] = biological target: T2, BRD4(BD1) (Homo sapiens, UniProt O60885); test: HTRF assay, BRD4(BD1)/histone peptide interaction; assay type: binding; design: made in house; settings: for IC50: HTRF; for Ratio 4-1 vs 4-2: selectivity Brd4(BD1) vs Brd4(BD2), HTRF IC50
Method: as §1, §2, §3

BRD4(BD1) [2] = biological target: T2, BRD4(BD1); test: Isothermal Titration Calorimetry; assay type: binding; settings: ITC; read-out: Binding affinity (Kd) to BRD4(1) by Isothermal Titration Calorimetry
Method: FIG. 1. Isothermal Titration Calorimetry (ITC) of 43c. Thermogram (top) and non-linear least squares fit model of the integrated data (bottom) at 15° C. of Brd4 (BD1) […] as a function of the molar ratio of ligand to the protein.
ITC was used to evaluate the thermodynamics parameters of the binding between BRD4 (BD1) and the selected compounds. Titrations were carried out on a MicroCal ITC200 microcalorimeter (GE Healthcare, Piscataway, N.J.). Each experiment was designed using a titrant concentration (protein in the syringe generally between 100 and 400 μM) set 10 to 15 times the analyte concentration (compound in the cell generally between 10 and 40 μM) and using 13 injections at 25° C. A first small injection (generally 0.2 μL) was included in the titration protocol in order to remove air bubbles trapped in the syringe prior titration. Raw data were scaled after setting the zero to the titration saturation heat value. Integrated raw ITC data were fitted to a one site non-linear least squares fit model using the MicroCal Origin plugin as implemented in Origin 7 (Origin Lab). Finally, ΔG and TΔS values were calculated from the fitted ΔH and KA values using the equations ΔG=−R.T.inKA and ΔG=ΔH−TΔS.

Jurkat cells = test: Cell Titer-Glo cell viability assay, Jurkat; assay type: cell-based; settings: Homo sapiens, 72 h, mean of three experiments, NA = IC50 > maximal concentration used
Method: (§5) The human leukemia cell line Jurkat (ATCC® TIB-152) and Molm14 was maintained in RPMI-1640 medium or MEMα, respectively and supplemented both with 10% FBS at 37° C. and 5% CO2.
(§6) In antiproliferative assays, compounds were assayed for their growth inhibiting activity towards the described cancer cell lines using the Cell Titer-Glo Luminescent Cell Viability Assay as described by the manufacturer (Promega Corporation). Briefly, 10.000 cells were plated onto 96 well-plates (white with clear bottom (3610, Corning Costar)) in 90 μL media per well immediately before assay. 10 μL of compounds were added at different concentrations (ranging from 50 μM to 6 nM) to each well and cell cultures were incubated 37° C. during 72 h. Vehicle (DMSO) was used as negative control, JQ1 (a pan-BET inhibitor) was used as positive control and all compounds were tested in constant percentage of DMSO (1%). After addition of 50 μL Cell Titer-GLO, shaking 2 minutes and incubating at room temperature 10 minutes, the Luminescence was measured using a Centro luminometer LB960 (Berthold). Dose-response curves were generated and effective dose 50 values (EC50) were calculated using non-linear regression analysis (Graph Pad Prism).

Brd2(BD1) = biological target: T3, Brd2(BD1) (Homo sapiens, UniProt P25440); test: HTRF BET selectivity profile, Brd2(BD1); assay type: binding; settings: for IC50: read-out: Brd2(BD1) IC50; for Ratio 2-1 vs 2-2: selectivity Brd2(BD1) vs Brd2(BD2), HTRF IC50
T3 construct: GST tagged bromodomain proteins were purchased from BPS Bioscience; purchased BPS Bioscience
T3 sequence (P25440 74-180 limits assumed): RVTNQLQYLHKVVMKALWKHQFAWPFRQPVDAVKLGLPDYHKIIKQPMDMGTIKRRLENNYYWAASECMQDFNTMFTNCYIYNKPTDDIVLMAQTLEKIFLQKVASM
Method: as §1, §2, §3

Molm14 cells = test: Cell Titer-Glo cell viability assay, Molm14; assay type: cell-based; settings: Homo sapiens, MOLM-14, 72 h, mean of three experiments, NA = IC50 > maximal concentration used
Method: as §5, §6

Brd4(BD2) = biological target: T4, Brd4(BD2) (Homo sapiens, UniProt O60885); test: HTRF BET selectivity profile, Brd4(BD2); assay type: binding
T4 construct: GST tagged bromodomain proteins were purchased from BPS Bioscience; purchased BPS Bioscience
Method: as §4, §2, §3

Brd2(BD2) = biological target: T5, Brd2(BD2) (Homo sapiens, UniProt P25440); test: HTRF BET selectivity profile, Brd2(BD2); assay type: binding; settings: read-out: Brd2(BD2) IC50
T5 construct: GST tagged bromodomain proteins were purchased from BPS Bioscience; purchased BPS Bioscience
T5 sequence (P25440 344-453 limits assumed): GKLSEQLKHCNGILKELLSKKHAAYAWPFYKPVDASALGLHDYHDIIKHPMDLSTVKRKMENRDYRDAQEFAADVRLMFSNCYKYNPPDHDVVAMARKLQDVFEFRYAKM
Method: as §1, §2, §3

Brd3(BD2) = biological target: T6, Brd3(BD2) (Homo sapiens, UniProt Q15059); test: HTRF BET selectivity profile, Brd3(BD2); assay type: binding
T6 construct: GST tagged bromodomain proteins were purchased from BPS Bioscience; purchased BPS Bioscience
T6 sequence (Q15059 306-415 limits assumed): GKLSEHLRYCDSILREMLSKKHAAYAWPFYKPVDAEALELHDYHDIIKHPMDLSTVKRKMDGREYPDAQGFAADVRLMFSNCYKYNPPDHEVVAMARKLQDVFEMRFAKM
Method: as §4, §2, §3

[3] = mean of three experiments, NA = IC50 > 50 μM, read-out: Brd4(8D1) IC50
[4] = triplicates, NA = IC50 > maximal concentration of compound used

SMILES	IC50 (Brd3(BD1))	Ratio 3-1 vs 3-2 (Brd3(BD1))	IC50 (Brdt(BD1))	IC50 (BRD4(BD1) [1]; [3])	IC50 (BRD4(BD1) [1]; [4])	Ratio 4-1 vs 4-2 (BRD4(BD1) [1])	Kd (BRD4(BD1) [2])	IC50 (Jurkat cells)	IC50 (Brd2(BD1))	Ratio 2-1 vs 2-2 (Brd2(BD1))	IC50 (Molm14 cells)	IC50 (Brd4(BD2))	IC50 (Brd2(BD2))	IC50 (Brd3(BD2))
O=C1CCCc2cc(S(=O)(=O)NCC3CCC(C(=O)NCCc4cccs4)CC3)ccc2N1 (single isomer, unassigned) [Compound 5b, 4-((2-oxo-2,3,4,5-tetrahydro-1H-benzo[b]azepine-7-sulfonamido)methyl)-N-(2-(thiophen-2-yl)ethyl)cyclohexanecarboxamide]	2.38 µM	>21	14.6 µM	3.83 µM	3.8 µM	>13	2.2 µM	9.3 µM	6.35 µM	>8	–	–	–	–
CCn1cnc2c1c(=O)[nH]c(=O)n2Cc1ccc(CNS(=O)(=O)c2ccn(-c3ccccc3)n2)cc1 [Compound 24b]	1 µM	12	6.26 µM	0.846 µM	0.846 µM	7	–	14.2 µM	3.33 µM	2	10.2 µM	5.85 µM	6.05 µM	12 µM
CCn1cnc2c1c(=O)[nH]c(=O)n2Cc1ccc(CNS(=O)(=O)c2ccc(-c3cc(C)n[nH]3)s2)cc1 [Compound 25a]	0.507 µM	6	3.47 µM	0.284 µM	0.284 µM	14	–	13.5 µM	2.1 µM	2	9.9 µM	4.05 µM	3.2 µM	3.17 µM
CCn1cnc2c1c(=O)[nH]c(=O)n2Cc1cc(OC)c(CNS(=O)(=O)c2ccc3c(c2)CCCC(=O)N3)cc1OC [Compound 32a]	–	–	–	–	13 µM	–	–	23.3 µM	–	–	30.2 µM	–	–	–
CCCCc1c(C)nc2nc(SCc3nc4c(c(=O)[nH]c(=O)n4Cc4ccc(CNS(=O)(=O)c5ccc6c(c5)CCCC(=O)N6)cc4)n3CC)nn2c1C [Compound 32c, N-(4-((8-(((6-butyl-5,7-dimethyl-[1,2,4]triazolo[1,5-a]pyrimidin-2-yl)thio)methyl)-7-ethyl-2,6-dioxo-1,2,6,7-tetrahydro-3H-purin-3-yl)methyl)benzyl)-2-oxo-2,3,4,5-tetrahydro-1H-benzo[b]azepine-7-sulfonamide]	4.43 µM	1	18.9 µM	1.08 µM	1.1 µM	9	2.1 µM	32.5 µM	4.67 µM	0.7	–	9.15 µM	3.36 µM	4.16 µM
CCn1cnc2c1c(=O)[nH]c(=O)n2Cc1ccc(CNS(=O)(=O)c2ccc(Oc3cncc(C)n3)cc2)cc1 [Compound 42c]	–	–	–	–	0.75 µM	–	–	–	–	–	12.2 µM	–	–	–
CCn1cnc2c1c(=O)[nH]c(=O)n2Cc1ccc(CNS(=O)(=O)c2ccc(C(=O)N3CCOCC3)cc2)cc1 [Compound 44b]	0.23 µM	14	0.397 µM	0.123 µM	0.123 µM	34	0.17 µM	–	0.352 µM	6	23.7 µM	4.24 µM	1.96 µM	3.32 µM
CCn1cnc2c1c(=O)[nH]c(=O)n2Cc1ccc(CNS(=O)(=O)c2ccc(Oc3ccc(C(F)(F)F)cc3)cc2)cc1 [Compound 44c]	–	–	–	–	0.522 µM	–	–	–	–	–	9.3 µM	–	–	–
CCn1cnc2c1c(=O)[nH]c(=O)n2Cc1ccc(CNS(=O)(=O)c2ccc(N3CCOCC3)cc2)cc1 [Compound 45a]	0.161 µM	10	0.432 µM	0.087 µM	0.087 µM	31	0.06 µM	–	0.321 µM	3	–	2.67 µM	1.07 µM	1.64 µM
